# Experimental data: paper PMC8571282 (Nature Communications, 2021)
# “And” between values parts separate entries of the source, which are not always exact repeats. Equal entries are not always repeated. Where two headings read alike, the source gives them in different places.
# How the values were obtained:
# SARS-CoV-2 WA1/2020 = type: in vivo, ferret (Mustela putorius furo); settings: for Transform of Nasal Lavage RNA copies, Mean Diff. (Vehicle vs. treated) / Transform of Nasal Lavage RNA copies, Mean 2 (treated group): Fig 3f; on Transform of Nasal Lavage RNA copies, Mean 2 (treated group): unit not given here; on Transform of Nasal Lavage RNA copies, Mean Diff. (Vehicle vs. treated): unit not given here
# “F2” primary HAE cells = assay: Cytotoxicity assay (PrestoBlue), “F2” HAE; settings: 72 h; for % cell viability: F2 HAE
# [1] = type: in vivo, ferret (Mustela putorius furo); settings: b.i.d.; for Bodyweight, Mean 2 (treated group) / Bodyweight, Mean Diff. (Vehicle vs. treated): Fig 3e; for Temperature, Mean 2 (treated group) / Temperature, Mean Diff. (Vehicle vs. treated): Fig 3d
# HEp-2 cells = assay: Cytotoxicity assay (PrestoBlue), HEp-2; settings: for % cell viability: 72 h
# in vitro = settings: human, CC50, “M2” HAE
# HCT-8 cells = assay: Cytotoxicity assay (PrestoBlue), HCT-8; settings: for % cell viability: 72 h
smiles,measurement,setting,value
CC(C)C(=O)OCC1OC(C#N)(c2ccc3c(N)ncnn23)C(OC(=O)C(C)C)C1OC(=O)C(C)C (centres unmarked) [GS-621763],"Transform of Nasal Lavage RNA copies, Mean Diff. (Vehicle vs. treated)","SARS-CoV-2 WA1/2020; Row 3 (time), 10mg/kg b.i.d.",2.012
same,"Transform of Nasal Lavage RNA copies, Mean 2 (treated group)","SARS-CoV-2 WA1/2020; Row 4 (time), 3mg/kg b.i.d.",5.77
same,"Transform of Nasal Lavage RNA copies, Mean Diff. (Vehicle vs. treated)","SARS-CoV-2 WA1/2020; Row 4 (time), 3mg/kg b.i.d.",-0.1446
same,"Transform of Nasal Lavage RNA copies, Mean 2 (treated group)","SARS-CoV-2 WA1/2020; Row 4 (time), 10mg/kg b.i.d.",3.777
same,"Transform of Nasal Lavage RNA copies, Mean Diff. (Vehicle vs. treated)","SARS-CoV-2 WA1/2020; Row 4 (time), 10mg/kg b.i.d.",1.849
same,"Transform of Nasal Lavage RNA copies, Mean 2 (treated group)","SARS-CoV-2 WA1/2020; Row 5 (time), 3mg/kg b.i.d.",5.662
same,"Transform of Nasal Lavage RNA copies, Mean Diff. (Vehicle vs. treated)","SARS-CoV-2 WA1/2020; Row 5 (time), 3mg/kg b.i.d.",0.07178
same,"Transform of Nasal Lavage RNA copies, Mean 2 (treated group)","SARS-CoV-2 WA1/2020; Row 5 (time), 10mg/kg b.i.d.",3.751
same,"Transform of Nasal Lavage RNA copies, Mean Diff. (Vehicle vs. treated)","SARS-CoV-2 WA1/2020; Row 5 (time), 10mg/kg b.i.d.",1.983
same,reduction of virus burden in the turbinates,SARS-CoV-2 WA1/2020; in vivo,one order of magnitude
same,viral RNA copies in nasal lavages and turbinates vs vehicle,SARS-CoV-2 WA1/2020; in vivo,statistically significant mean reduction
same,virus burden in the turbinates,SARS-CoV-2 WA1/2020; in vivo,approached the limit of detection
same,virus load in nasal lavages vs vehicle,SARS-CoV-2 WA1/2020; in vivo,approximately one order of magnitude lower
same,virus shedding in nasal lavages,SARS-CoV-2 WA1/2020; in vivo,near-detection level
same,% cell viability,“F2” primary HAE cells; 0.046 µM,84% and 81%
same,% cell viability,“F2” primary HAE cells; 1.235 µM,109%
same,% cell viability,“F2” primary HAE cells; 3.704 µM,109%
same,% cell viability,“F2” primary HAE cells; 33.333 µM,87% and 80%
same,CC50,“F2” primary HAE cells; “F2” HAE,43.8 µM
same,"Bodyweight, Mean 2 (treated group)","[1]; Row 1 (time), 3 mg/kg",100
same,"Bodyweight, Mean Diff. (Vehicle vs. treated)","[1]; Row 1 (time), 3 mg/kg",0
same,"Bodyweight, Mean 2 (treated group)","[1]; Row 1 (time), 10 mg/kg",100
same,"Bodyweight, Mean Diff. (Vehicle vs. treated)","[1]; Row 1 (time), 10 mg/kg",0
same,"Bodyweight, Mean 2 (treated group)","[1]; Row 2 (time), 3 mg/kg",98.83
same,"Bodyweight, Mean Diff. (Vehicle vs. treated)","[1]; Row 2 (time), 3 mg/kg",1.898
same,"Bodyweight, Mean 2 (treated group)","[1]; Row 2 (time), 10 mg/kg",104.7
same,"Bodyweight, Mean Diff. (Vehicle vs. treated)","[1]; Row 2 (time), 10 mg/kg",-3.948
same,"Bodyweight, Mean 2 (treated group)","[1]; Row 3 (time), 3 mg/kg",102.4
same,"Bodyweight, Mean Diff. (Vehicle vs. treated)","[1]; Row 3 (time), 3 mg/kg",-1.11
same,"Bodyweight, Mean 2 (treated group)","[1]; Row 3 (time), 10 mg/kg",103.7
same,"Bodyweight, Mean Diff. (Vehicle vs. treated)","[1]; Row 3 (time), 10 mg/kg",-2.374
same,"Bodyweight, Mean 2 (treated group)","[1]; Row 4 (time), 3 mg/kg",104.1
same,"Bodyweight, Mean Diff. (Vehicle vs. treated)","[1]; Row 4 (time), 3 mg/kg",-1.927
same,"Bodyweight, Mean 2 (treated group)","[1]; Row 4 (time), 10 mg/kg",106.9
same,"Bodyweight, Mean Diff. (Vehicle vs. treated)","[1]; Row 4 (time), 10 mg/kg",-4.724
same,"Bodyweight, Mean 2 (treated group)","[1]; Row 5 (time), 3 mg/kg",105.2
same,"Bodyweight, Mean Diff. (Vehicle vs. treated)","[1]; Row 5 (time), 3 mg/kg",-2.7
same,"Bodyweight, Mean 2 (treated group)","[1]; Row 5 (time), 10 mg/kg",107.9
same,"Bodyweight, Mean Diff. (Vehicle vs. treated)","[1]; Row 5 (time), 10 mg/kg",-5.412
same,"Temperature, Mean 2 (treated group)","[1]; Row 1 (time), 3 mg/kg",38.95
same,"Temperature, Mean Diff. (Vehicle vs. treated)","[1]; Row 1 (time), 3 mg/kg",0.2
same,"Temperature, Mean 2 (treated group)","[1]; Row 1 (time), 10 mg/kg",38.53
same,"Temperature, Mean Diff. (Vehicle vs. treated)","[1]; Row 1 (time), 10 mg/kg",0.625
same,"Temperature, Mean 2 (treated group)","[1]; Row 2 (time), 3 mg/kg",38.75
same,"Temperature, Mean Diff. (Vehicle vs. treated)","[1]; Row 2 (time), 3 mg/kg",-0.075
same,"Temperature, Mean 2 (treated group)","[1]; Row 2 (time), 10 mg/kg",39.03
same,"Temperature, Mean Diff. (Vehicle vs. treated)","[1]; Row 2 (time), 10 mg/kg",-0.35
same,"Temperature, Mean 2 (treated group)","[1]; Row 3 (time), 3 mg/kg",38.78
same,"Temperature, Mean Diff. (Vehicle vs. treated)","[1]; Row 3 (time), 3 mg/kg",-0.1
same,"Temperature, Mean 2 (treated group)","[1]; Row 3 (time), 10 mg/kg",38.85
same,"Temperature, Mean Diff. (Vehicle vs. treated)","[1]; Row 3 (time), 10 mg/kg",-0.175
same,"Temperature, Mean 2 (treated group)","[1]; Row 4 (time), 3 mg/kg",38.93
same,"Temperature, Mean Diff. (Vehicle vs. treated)","[1]; Row 4 (time), 3 mg/kg",-0.275
same,"Temperature, Mean 2 (treated group)","[1]; Row 4 (time), 10 mg/kg",38.73
same,"Temperature, Mean Diff. (Vehicle vs. treated)","[1]; Row 4 (time), 10 mg/kg",-0.075
same,"Temperature, Mean 2 (treated group)","[1]; Row 5 (time), 3 mg/kg",38.73
same,"Temperature, Mean Diff. (Vehicle vs. treated)","[1]; Row 5 (time), 3 mg/kg",-0.15
same,"Temperature, Mean 2 (treated group)","[1]; Row 5 (time), 10 mg/kg",38.2
same,"Temperature, Mean Diff. (Vehicle vs. treated)","[1]; Row 5 (time), 10 mg/kg",0.375
same,% cell viability,"HEp-2 cells; HEp-2, 0.046 µM, 0.046 µM",67% and 49%
same,% cell viability,"HEp-2 cells; HEp-2, 3.704 µM, 3.704 µM",107% and 97%
same,CC50,"HEp-2 cells; HEp-2, 72 h",79.4 µM
same,CC50 at 72 h,in vitro,39.7 µM
same,% cell viability,"HCT-8 cells; HCT-8, 0.046 µM, 0.046 µM",75% and 72%
same,% cell viability,"HCT-8 cells; HCT-8, 1.235 µM, 1.235 µM",103%
same,% cell viability,"HCT-8 cells; HCT-8, 33.333 µM, 33.333 µM",96%
same,% cell viability,"HCT-8 cells; HCT-8, 100 µM, 100 µM",1%
same,CC50,"HCT-8 cells; HCT-8, 72 h",74.6 µM
